Results published in patent US10618912B2, “Diaryl macrocycles as modulators of protein kinases” (Turning Point Therapeutics, Inc., priority 2014, dated 2020).
pIC50: −log10 of the molar value.

What was measured:
KM12 cells = test: Caspase activity assay; type: cell-based; conditions: 72 hours, caspase3 glo / PARP immunoblot
Method: KM12 cells were maintained in DMEM medium supplemented with 10% fetal bovine serum and antibiotics. 500,000 cells were seeded in 12-well plate and various concentration of compounds were introduced for 72 hours For staurosporine treatment, 500 nM of STS were added at time of 60 hours and incubation of 12 hours as a positive control. All the cells were collected and washed with 1×PBS twice and then lysed in a lysis buffer (20 mM HEPES, 150 mM NaCl, 10 mM KCl, 5 mM EDTA, 1% NP40) supplemented with Halt protease and phosphatase inhibitors (Thermo Scientific). For caspase assays, around 20 μL (20 μg) of cell lysate were incubated with 20 μL, of caspase3 glo reagent (Promega), measuring enzyme activity by the release of luminescence after 20 min incubation at 37° C. For western blotting, cell lysates were boiled and analyzed by SDS-PAGE/immunoblotting using PARP, or actin antibodies.

[1] = test system: Ba/F3-EML4-ALK wild type cell line; test: EML4-ALK Ba/F3 cell proliferation assay; type: cell-based; conditions: 48 hours incubation, read-out: EML4-ALK Ba/F3 cell proli. IC50
Method: The EML4-ALK wild-type gene (variant 1) was synthesized at GenScript and cloned into pCDH-CMV-MCS-EF1-Puro plasmid (System Biosciences, Inc). Ba/F3-EML4-ALK wild type cell line was generated by infecting Ba/F3 cells with lentivirus containing EML4-ALK wide-type. Stable cell lines were selected by puromycin treatment, followed by IL-3 withdrawal. 5000 cells were seeded in 384 well white plate overnight before compound treatment. Cell proliferation was measured using CellTiter-Glo luciferase-based ATP detection assay (Promega) following the manufactures's protocol after 48 hours of various concentration of compound incubation. IC50 determinations were performed using GraphPad Prism software (GraphPad, Inc., San Diego, Calif.).

Row | Structure (SMILES) | apoptosis of KM 12 cells (KM12 cells) | pIC50 [1]
1 | CN1Cc2cc(F)ccc2OCCNC(=O)c2cnn3ccc1nc23 [Example 20, 11-fluoro-14-methyl-6,7,13,14-tetrahydro-1,15-ethenopyrazolo[4,3-f][1,4,8,10]benzoxatriazacyclo-tridecin-4(5H)-one] | induced apoptosis | 
2 | C[C@H]1CNC(=O)c2cnn3ccc(nc23)N[C@H](C)c2cc(F)ccc2O1 [Example 93, (7S,13R)-11-fluoro-7,13-dimethyl-6,7,13,14-tetrahydro-1,15-ethenopyrazolo[4,3-f][1,4,8,10]benzoxatriazacyclotridecin-4(5H)-one] |  | 7.68
3 | C[C@@H]1CNC(=O)c2cnn3ccc(nc23)N[C@H](C)c2cc(F)ccc2O1 [Example 92, (7R,13R)-11-fluoro-7,13-dimethyl-6,7,13,14-tetrahydro-1,15-ethenopyrazolo[4,3-f][1,4,8,10]benzoxatriazacyclotridecin-4(5H)-one] |  | 7.10
4 | C[C@H]1Nc2ccn3ncc(c3n2)C(=O)NCCOc2ccc(F)cc21 [Example 51-1, (13R)-11-fluoro-13-methyl-6,7,13,14-tetrahydro-1,15-ethenopyrazolo[4,3-f][1,4,8,10]benzoxatriazacyclotridecin-4(5H)-one] |  | 6.61
